Test results taken from PubChem BioAssay (NCI).
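GI50: concentration for 50% inhibition of growth. TGI marks complete inhibition of growth.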

How the values were obtained:
Experiment in all cases: growth of human tumour cells (NCI), 384-well format
UACC-257 melanoma = system: UACC-257 melanoma
PC-3 prostate = system: PC-3 prostate
HL-60(TB) leukemia = system: HL-60(TB) leukemia
MDA-MB-435 melanoma = system: MDA-MB-435 melanoma
NCI-H226 lung = system: NCI-H226 lung
SN12C renal = system: SN12C renal
OVCAR-5 ovarian = system: OVCAR-5 ovarian
MDA-MB-468 breast = system: MDA-MB-468 breast
MDA-MB-231 breast = system: MDA-MB-231 breast
SF-295 CNS = system: SF-295 CNS
T-47D breast = system: T-47D breast
MOLT-4 leukemia = system: MOLT-4 leukemia
EKVX NSCLC = system: EKVX NSCLC
RPMI-8226 leukemia = system: RPMI-8226 leukemia
SNB-75 CNS = system: SNB-75 CNS
ACHN renal = system: ACHN renal
NCI-H460 NSCLC = system: NCI-H460 NSCLC
HCC-2998 colon = system: HCC-2998 colon
CCRF-CEM leukemia = system: CCRF-CEM leukemia
SK-MEL-5 melanoma = system: SK-MEL-5 melanoma
NCI-H522 lung = system: NCI-H522 lung
M14 melanoma = system: M14 melanoma
TK-10 renal = system: TK-10 renal
SK-MEL-28 melanoma = system: SK-MEL-28 melanoma
NCI-H322M lung = system: NCI-H322M lung
HOP-62 NSCLC = system: HOP-62 NSCLC
MALME-3M melanoma = system: MALME-3M melanoma
OVCAR-8 ovarian = system: OVCAR-8 ovarian
IGROV1 ovarian = system: IGROV1 ovarian
HCT-15 colon = system: HCT-15 colon
NCI/ADR-RES ovarian = system: NCI/ADR-RES ovarian
SK-OV-3 ovarian = system: SK-OV-3 ovarian
SF-268 CNS = system: SF-268 CNS
MCF7 breast = system: MCF7 breast
K-562 leukemia = system: K-562 leukemia
OVCAR-3 ovarian = system: OVCAR-3 ovarian
SW-620 colon = system: SW-620 colon
LOX IMVI melanoma = system: LOX IMVI melanoma
NCI-H23 lung = system: NCI-H23 lung
A498 renal = system: A498 renal
U251 glioblastoma = system: U251 glioblastoma
OVCAR-4 ovarian = system: OVCAR-4 ovarian
COLO 205 colon = system: COLO 205 colon
HS 578T breast = system: HS 578T breast
SNB-19 CNS = system: SNB-19 CNS
HOP-92 NSCLC = system: HOP-92 NSCLC
BT-549 breast = system: BT-549 breast
UACC-62 melanoma = system: UACC-62 melanoma
DU-145 prostate = system: DU-145 prostate
RXF 393 renal = system: RXF 393 renal
A549 NSCLC = system: A549 NSCLC
CAKI-1 renal = system: CAKI-1 renal
HCT-116 colon = system: HCT-116 colon
SF-539 CNS = system: SF-539 CNS
HT29 colon = system: HT29 colon
786-0 renal = system: 786-0 renal
KM12 colon = system: KM12 colon

CNC(=O)c1cc(Oc2ccc(NC(=O)Nc3cc(C(C)(C)C)nn3-c3ccc4ncccc4c3)c(F)c2)ccn1
GI50 (UACC-257 melanoma): 358 nM | TGI (UACC-257 melanoma): 1710 nM | GI50 (PC-3 prostate): 3160 nM | TGI (PC-3 prostate): 9470 nM | GI50 (HL-60(TB) leukemia): 724 nM | TGI (HL-60(TB) leukemia): 1530 nM | GI50 (MDA-MB-435 melanoma): 477 nM | TGI (MDA-MB-435 melanoma): 1700 nM | GI50 (NCI-H226 lung): 109 nM | TGI (NCI-H226 lung): > 100000 nM | GI50 (SN12C renal): 679 nM | TGI (SN12C renal): 4180 nM | GI50 (OVCAR-5 ovarian): 884 nM | TGI (OVCAR-5 ovarian): 58000 nM | GI50 (MDA-MB-468 breast): 2820 nM | TGI (MDA-MB-468 breast): 4370 nM | GI50 (MDA-MB-231 breast): 558 nM | TGI (MDA-MB-231 breast): > 100000 nM | GI50 (SF-295 CNS): 2210 nM | TGI (SF-295 CNS): > 100000 nM | GI50 (T-47D breast): 853 nM | TGI (T-47D breast): 4820 nM | GI50 (MOLT-4 leukemia): 1540 nM | TGI (MOLT-4 leukemia): 2940 nM | GI50 (EKVX NSCLC): 1490 nM | TGI (EKVX NSCLC): 4280 nM | GI50 (RPMI-8226 leukemia): 1910 nM | TGI (RPMI-8226 leukemia): 3440 nM | GI50 (SNB-75 CNS): 1070 nM | TGI (SNB-75 CNS): 2280 nM | GI50 (ACHN renal): 446 nM | TGI (ACHN renal): 4260 nM | GI50 (NCI-H460 NSCLC): 1160 nM | TGI (NCI-H460 NSCLC): 4380 nM | GI50 (HCC-2998 colon): 2140 nM | TGI (HCC-2998 colon): 4730 nM | GI50 (CCRF-CEM leukemia): 1370 nM | TGI (CCRF-CEM leukemia): 2760 nM | GI50 (SK-MEL-5 melanoma): 552 nM | TGI (SK-MEL-5 melanoma): 1830 nM | GI50 (NCI-H522 lung): 1450 nM | TGI (NCI-H522 lung): 3010 nM | GI50 (M14 melanoma): 97.7 nM | TGI (M14 melanoma): 1020 nM | GI50 (TK-10 renal): 1210 nM | TGI (TK-10 renal): 4400 nM | GI50 (SK-MEL-28 melanoma): 310 nM | TGI (SK-MEL-28 melanoma): 1200 nM | GI50 (NCI-H322M lung): 2580 nM | TGI (NCI-H322M lung): 9500 nM | GI50 (HOP-62 NSCLC): 1740 nM | TGI (HOP-62 NSCLC): 3970 nM | GI50 (MALME-3M melanoma): 34.3 nM | TGI (MALME-3M melanoma): 308 nM | GI50 (OVCAR-8 ovarian): 1740 nM | TGI (OVCAR-8 ovarian): 4300 nM | GI50 (IGROV1 ovarian): 442 nM | TGI (IGROV1 ovarian): 7530 nM | GI50 (HCT-15 colon): 2340 nM | TGI (HCT-15 colon): 6880 nM | GI50 (NCI/ADR-RES ovarian): 2530 nM | TGI (NCI/ADR-RES ovarian): 6340 nM | GI50 (SK-OV-3 ovarian): 1050 nM | TGI (SK-OV-3 ovarian): > 100000 nM | GI50 (SF-268 CNS): 192 nM | TGI (SF-268 CNS): 752 nM | GI50 (MCF7 breast): 1590 nM | TGI (MCF7 breast): > 100000 nM | TGI (K-562 leukemia): > 100000 nM | GI50 (OVCAR-3 ovarian): 2390 nM | TGI (OVCAR-3 ovarian): 5220 nM | GI50 (SW-620 colon): 2740 nM | TGI (SW-620 colon): 5710 nM | GI50 (LOX IMVI melanoma): 281 nM | TGI (LOX IMVI melanoma): 961 nM | GI50 (NCI-H23 lung): 490 nM | TGI (NCI-H23 lung): 1580 nM | GI50 (A498 renal): 2410 nM | TGI (A498 renal): 9320 nM | GI50 (U251 glioblastoma): 1930 nM | TGI (U251 glioblastoma): 4950 nM | GI50 (OVCAR-4 ovarian): 2180 nM | TGI (OVCAR-4 ovarian): 4990 nM | GI50 (COLO 205 colon): 391 nM | TGI (COLO 205 colon): 2810 nM | GI50 (HS 578T breast): 547 nM | TGI (HS 578T breast): 1640 nM | GI50 (SNB-19 CNS): 3690 nM | TGI (SNB-19 CNS): > 100000 nM | GI50 (HOP-92 NSCLC): 605 nM | TGI (HOP-92 NSCLC): > 100000 nM | GI50 (BT-549 breast): 632 nM | TGI (BT-549 breast): 1880 nM | GI50 (UACC-62 melanoma): 32.8 nM | TGI (UACC-62 melanoma): 612 nM | GI50 (DU-145 prostate): 2220 nM | TGI (DU-145 prostate): 8640 nM | GI50 (RXF 393 renal): 499 nM | TGI (RXF 393 renal): 1570 nM | GI50 (A549 NSCLC): 1180 nM | TGI (A549 NSCLC): 23200 nM | GI50 (CAKI-1 renal): 359 nM | TGI (CAKI-1 renal): > 100000 nM | GI50 (HCT-116 colon): 937 nM | TGI (HCT-116 colon): > 100000 nM | GI50 (SF-539 CNS): 1400 nM | TGI (SF-539 CNS): 2730 nM | GI50 (HT29 colon): 520 nM | TGI (HT29 colon): > 100000 nM | GI50 ([…]-0 renal): 1470 nM | TGI (786-0 renal): 5190 nM | TGI (KM12 colon): 6360 nM
